Key:
[1] = system: Hep3B; test: MTT cytotoxicity assay (Example 30); assay type: cell-based, human; settings: Homo sapiens, Hep3B, 72 h; MTT, three days after drug addition; read-out: Inhibitory concentration IC50, Hep3B
[2] = system: p53-regulated transcription in Arn8 cells; test: p53-dependent transcriptional activity, β-galactosidase reporter; assay type: cell-based; settings: 24 h incubation
Method in brief: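 Arn8 melanoma cells stably carrying the p53-responsive pRGCAfoslacZ reporter, exposed to compounds for 24 h. Cells permeabilised with 0.3% Triton X-100 for 15 min, then given 80 μM 4-methylumbelliferyl-β-D-galactopyranoside. β-Galactosidase product fluorescence read after 1 h at 355/460 nm.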

[3] = system: HepG2; test: MTT cytotoxicity assay (Example 30); assay type: cell-based; settings: Homo sapiens, HepG2, 72 h; MTT, three days after drug addition; read-out: Inhibitory concentration IC50, HepG2
Method in brief: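 HepG2 cells in EMEM with 10% FBS, seeded at 10000 per well, dosed next day in triplicate at various concentrations. Three days later MTT added for 4 h; formazan dissolved in DMSO and absorbance read at 570 nm.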

[4] = system: caspase-3/7 activity in PLC/PRF/5 cell line; test: One-step cellular caspase-3/7 activity assay; assay type: cell-based, human; settings: 24 hours incubation, relative to 0 nM = 1.00
Method in brief: (§1)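 Hep3B or PLC/PRF/5 cells, plated overnight, were exposed to compounds for 24 h. Lysis buffer containing 150 μM Ac-DEVD-AMC substrate was added, and plates were incubated at 37° C. Caspase-3/7 activity was read as AMC fluorescence (ex 346/em 442 nm) after 6 h.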

[5] = system: caspase-3/7 activity in Hep3B cell line; test: One-step cellular caspase-3/7 activity assay; assay type: cell-based, human; settings: 24 hours, 0 nM = 1.00
Method in brief: as §1

Structure (SMILES) | IC50 [1] | Concentration of maximum activation [2] | IC50 [3] | Relative caspase-3/7 activity in PLC/PRF/5 cell line ([4]; compound concentration 40 nM) | Relative caspase-3/7 activity in PLC/PRF/5 cell line ([4]; compound concentration 80 nM) | Relative caspase-3/7 activity in PLC/PRF/5 cell line ([4]; compound concentration 160 nM) | Relative caspase-3/7 activity in PLC/PRF/5 cell line ([4]; compound concentration 320 nM) | Relative caspase-3/7 activity in PLC/PRF/5 cell line ([4]; compound concentration 640 nM) | Relative caspase-3/7 activity in PLC/PRF/5 cell line ([4]; compound concentration 1280 nM) | Relative caspase-3/7 activity in Hep3B cell line ([5]; 200 nM) | Relative caspase-3/7 activity in Hep3B cell line ([5]; 400 nM) | Relative caspase-3/7 activity in Hep3B cell line ([5]; 800 nM) | Relative caspase-3/7 activity in Hep3B cell line ([5]; 1600 nM) | Relative caspase-3/7 activity in Hep3B cell line ([5]; 100 nM)
COc1ccccc1-c1ccc(CNc2nc(NC3CCC(N)CC3)nc3c2ncn3C2CCCC2)cn1 (stereo not shown) [BP18, N^2-(4-amino-cyclohexyl)-9-cyclopentyl-N^6-[6-(2-methoxy-phenyl)-pyridin-3-ylmethyl]-9H-purine-2,6-diamine] | 0.233 µM | 510 nM | 0.417 µM | 0.97 | 2.40 | >5.00 | >5.00 | >5.00 | >5.00 | 0.89 | 3.19 | 6.05 | 8.59 | –
NC1CCC(Nc2nc(NCc3ccc(-c4cccc(F)c4)nc3)c3ncn(C4CCCC4)c3n2)CC1 (stereo not shown) [BP19, N^2-(4-amino-cyclohexyl)-9-cyclopentyl-N^6-[6-(3-fluoro-phenyl)-pyridin-3-ylmethyl]-9H-purine-2,6-diamine] | 0.085 µM | 167 nM | 0.111 µM | 1.78 | 2.39 | >5.00 | >5.00 | >5.00 | >5.00 | 4.82 | 6.60 | 9.80 | 9.45 | 0.90
NC1CCC(Nc2nc(NCc3ccc(-c4ccccc4O)nc3)c3ncn(C4CCCC4)c3n2)CC1 (stereo not shown) [BP20, N^2-(4-amino-cyclohexyl)-9-cyclopentyl-N^6-[6-(2-hydroxy-phenyl)-pyridin-3-ylmethyl]-9H-purine-2,6-diamine] | 0.032 µM | 150 nM | 0.068 µM | 3.15 | 2.66 | >5.00 | >5.00 | >5.00 | >5.00 | 5.37 | 8.25 | 9.63 | 9.95 | 4.42
OC1CCC(Nc2nc(NCc3ccc(-c4ccco4)nc3)c3ncn(C4CCCC4)c3n2)CC1 (stereo not shown) [BP21, 4-{9-cyclopentyl-6-[(6-furan-2-yl-pyridin-3-ylmethyl)-amino]-9H-purine-2-ylamino}-cyklohexanol] | 0.487 µM | 918 nM | 0.038 µM | 0.69 | 1.20 | 2.19 | 3.39 | >5.00 | >5.00 | 1.15 | 1.18 | 4.36 | 7.19 | –
Nc1ccccc1-c1ccc(CNc2nc(NC3CCC(N)CC3)nc3c2ncn3C2CCCC2)cn1 (stereo not shown) [BP22, N^2-(4-amino-cyclohexyl)-9-cyclopentyl-N^6-[6-(2-amino-phenyl)-pyridin-3-ylmethyl]-9H-purine-2,6-diamine] | 0.487 µM | 373 nM | > 1 µM | – | – | 0.72 | 1.08 | 1.92 | 3.50 | 0.81 | 0.80 | 0.81 | 1.18 | –
NC1CCC(Nc2nc(NCc3ccc(-n4cccn4)cc3)c3ncn(C4CCCC4)c3n2)CC1 (stereo not shown) [BP24, N^2-(4-amino-cyclohexyl)-9-cyclopentyl-N^6-(4-pyrazol-1-yl-benzyl)-9H-purine-2,6-diamine] | 0.115 µM | 260 nM | 0.142 µM | 2.01 | 2.59 | >5.00 | >5.00 | >5.00 | >5.00 | 6.18 | 6.81 | 9.80 | 9.65 | 1.98
NC1CCC(Nc2nc(NCc3ccc(-c4cccs4)nc3)c3ncn(C4CCCC4)c3n2)CC1 (stereo not shown) [BP30, N^2-(4-amino-cyclohexyl)-9-cyclopentyl-N^6-(6-thiophen-2-yl-pyridin-3-ylmethyl)-9H-purine-2,6-diamine] | 0.077 µM | 120 nM | 0.206 µM | 2.46 | 3.93 | >5.00 | >5.00 | >5.00 | >5.00 | 5.32 | 8.08 | 9.00 | 9.43 | 2.99
Nc1ccccc1-c1ccc(CNc2nc(NC3CCC(N)CC3)nc3c2ncn3C2CCCC2)cc1 (stereo not shown) [BP32, N^2-(4-amino-cyclohexyl)-9-cyclopentyl-N^6-(2′-amino-biphenyl-4-ylmethyl)-9H-purine-2,6-diamine] | 0.4 µM | 895 nM | > 1 µM | 0.62 | 1.00 | 0.69 | 2.01 | >5.00 | >5.00 | 0.70 | 1.15 | 2.48 | 7.53 | –
NC1CCC(Nc2nc(NCc3ccc(-c4ccsc4)nc3)c3ncn(C4CCCC4)c3n2)CC1 (stereo not shown) [BP35, N^2-(4-amino-cyclohexyl)-9-cyclopentyl-N^6-(6-thiophen-3-yl-pyridin-3-ylmethyl)-9H-purine-2,6-diamine] | 0.207 µM | 230 nM | 0.278 µM | 1.10 | 2.37 | 2.97 | >5.00 | >5.00 | >5.00 | 1.01 | 5.59 | 6.07 | 9.10 | –
NC1CCC(Nc2nc(NCc3ccc(-c4ccoc4)nc3)c3ncn(C4CCCC4)c3n2)CC1 (stereo not shown) [BP36, N^2-(4-amino-cyclohexyl)-9-cyclopentyl-N^6-(6-furan-3-yl-pyridin-3-ylmethyl)-9H-purine-2,6-diamine] | 0.13 µM | 125 nM | 0.131 µM | 2.34 | >5.00 | >5.00 | >5.00 | >5.00 | >5.00 | 6.19 | 6.55 | 9.80 | 9.75 | 2.67
